pIC50: −log10 of the molar value. Entries after “also recorded” stand apart in the source; their conditions may differ. Where two headings read alike, the source gives them in different places. Numbered stars: 1 amine (or outer) side, 2 acyl side, 3 side chain; on linkers, the order of the positions; unused ones are H or OH. Bridge positions count the residues as written; N and C are the ends. Square brackets hold non-standard residues; d marks the D form. Peptide text beside a SMILES is read from it. I, II: the chains in the order shown. * marks the point of attachment. Actinocin(9to1) = Cc1c2oc3c(C)ccc(C(=O)[*:1])c3nc-2c(C(=O)[*:2])c(N)c1=O; NMeV = CN[C@H](C(=O)O)C(C)C; Cbz = O=C(OCc1ccccc1)*; Sar = CNCC(=O)O
Key:
Arg2 = Arg2 protein expression in HAECs (Western blot); assay type: cell-based, human; settings: for OxLDL-induced increase in abundance of endothelial arginase: preincubation 8 h, MLN4924 1 μM or MG132 10 μM, then OxLDL 50 μg/mL 24 h; for TSA (1 μmol/L) effect on Arg2 expression in pretreated cells: pretreatment with actinomycin D or cycloheximide (10 μg/mL)
Experimental: (§1) After 48 hrs of HAEC cells transfection, cells were lysed in ice cold RIPA lysis buffer consisting of 20 mM Tris-HCl at pH 7.5, 150 mM NaCl, 1 mM EDTA, 1 mM EGTA, 1% NP40, 1% sodium deoxycholate, 1 mM Na3VO4, 2.5 mM sodium pyrophosphate, 1 mM 3-glycerophosphate, 1 μg/mL leupeptin, and a 1:1000 diluted protease inhibitor cocktail (Sigma). For immunoprecipitation studies, whole cell lysate lysates were centrifuged at 14,000×g and supernatants were precleared by incubation with Protein A/G-agarose beads for 2 h at 4° C. with rocking. Agarose beads were then pelleted by centrifugation at 1,000×g. FLAG-Arg2 in precleared lysates were immunoprecipitated by incubation overnight at 4° C. with rocking following addition of anti-FLAG antibody (10 μl). Immune complexes were eluted in 2×SDS sample buffer by boiling for 5 minutes before loading into SDS-PAGE. Western blotting analysis was performed by transferring the SDS gel onto a PVDF membrane and visualized using secondary antibodies conjugated to alkaline phosphatases.

NEDD8 = assay: Protein NEDDylation in HAECs (immunoblot, immunoprecipitation); assay type: cell-based, human; settings: HAEC expressing HA-tagged-NEDD8; MLN4924 0, 0.1, 0.3 or 1 μM, dose-dependent
Experimental: FIG. 21A-FIG. 21H is a series of graphs and photographs of immunoblots showing inhibition of NEDDylation by MLN4924 improves OxLDL-mediated vascular endothelial dysfunction via downregulation of Arginase 2. Wire myography was used to measure vasorelaxation with acetylcholine (FIG. 21A, Ach) and sodium nitroprusside (FIG. 21B, SNP) in isolated mice aortas. Conditions included 24 h of OxLDL (50 μg/mL) or control medium preceded by 1 h with either vehicle (DMSO) or MLN4924 (1 μM). […] Note that native (and not transgene) HDAC2 protein levels are shown here. […] Note that “0 μgHA-NEDD8” denotes an empty vector (pcDNA3.1) control. *Indicates p b 0.05 vs control; **indicates p b 0.001; n=6 for vascular reactivity and arginase activity assays.
Densitometry analysis of data from three experiments is shown in top panel. […] Note that “0 μg HA-NEDD8” denotes an empty vector (pcDNA3.1) control. […] Western blots in this figure are representative of 3 independent experiments.

[1] = system: arginase activity in HAECs; assay: Arginase activity assay (urea production) in HAEC lysates; assay type: cell-based, human; settings: for OxLDL-induced increase in activity of endothelial arginase: preincubation 8 h, MLN4924 1 μM or MG132 10 μM, then OxLDL 50 μg/mL 24 h
Experimental: HAEC were lysed using RIPA buffer (50 mM of Tris.HCl, pH 7.5, 0.1 mM EDTA, 0.1% Triton X-100, and protease inhibitor), and centrifuged for 30 min at 14,000 g at 4° C. 50 μL (50-100 μg) of supernatant was added to 75 μl of 10 mM MnCl2 made in Tris-HCl (50 mM, pH 7.5) and heat activated by incubating at 55-60° C. for 10 min. 50 μL of L-Arginine that was prepared in 300 mM Tris-HCL, pH 9.7 were then added to the activated cell lysates to achieve final concentrations of 150 mM and incubated at 37° C. for 3 hrs with shaking. The reaction was stopped by adding 400 μL of an acid solution (H2SO4: H3PO4: H20=1:3:7). For colorimetric determination of urea, α-isonitrosopropiophenone (25 μL, 9% in ethanol) was added and further heated at 100° C. for 45 min. Samples were allowed to cool at room temperature in the dark for 10 min and urea concentration was determined by measuring absorbance at 550 nm using a spectrophotometer.

[2] = system: aortic rings of wild-type mice; assay: Force tension (wire) myography, vascular relaxation of isolated wild-type mouse aortic rings; assay type: cell-based
Experimental: Mouse aorta was isolated and cleaned in ice-cold Krebs-Ringer-bicarbonate solution containing the following (in mM): 118.3 NaCl, 4.7 KCl, 1.6 CaCl2, 1.2 KH2 PO4, 25 NaHCO3, 1.2 MgSO4, and 11.1 dextrose. The aorta was immersed in a bath filled with constantly oxygenated Krebs buffer at 37° C. Equal size thoracic aortic rings (2 mm) were mounted using a microscope, ensuring no damage to the smooth muscle or endothelium. One end of the aortic rings was connected to a transducer, and the other to a micromanipulator. Aorta was passively stretched to an optimal resting tension using the micromanipulator, after which a dose of 60 mM KCl was administered, and repeated after a wash with Krebs buffer. After these washes, all vessels were allowed to equilibrate for 20-30 min in the presence of indomethacin (3 μM). Phenylephrine (1 μM) was administered to induce vasoconstriction. A dosedependent response (1 nM to 10 μM), with the muscarinic agonist, ACH or nitric oxide donor, SNP, was then performed as necessary. The responses were repeated in the presence of inhibitors. Relaxation responses were calculated as a percentage of tension following pre-constriction. Sigmoidal dose-response curves were fitted to data with the minimum constrained to 0. Two to four rings were isolated from each animal and the number of animals in each group (n) was 6.

HDAC2 [3] = assay: HDAC2 protein expression in HAECs (immunoblot); assay type: cell-based, human; settings: for HDAC2 levels in OxLDL-exposed HAEC: pretreatment 8 h, MLN4924 1 μM or MG132 10 μM, then OxLDL 50 μg/mL 24 h
Experimental: as §1

SIRT = settings: cited from earlier work
Arg2 mRNA = Arg2 mRNA in HAECs (RT-PCR, real-time PCR); assay type: cell-based, human
Experimental: Total RNA was extracted from segments of mice aortas and HAEC using Trizol and PureLink (Invitrogen). RNA was then reverse transcribed with oligo dT primers to obtain cDNA and quantitative real time PCR (Applied Biosystems) was performed using SYBR Green Supermix mix (Applied Biosystems) whereas semiquantitative RTPCR was performed using conventional Biorad PCR machine and the following primer sets: Real Time PCR data are expressed as “fold change”, which is calculated as 2-ΔΔCt.

eNOS = eNOS expression in HAECs (immunoblot); assay type: cell-based, human; settings: 1 μmol/L, 18 hours
Experimental: as §1

HDAC2 [4] = settings: low-dose; cited from earlier work
NO production in HAECs = assay: Nitric oxide production in HAECs (DAF-DA fluorescence, Siever's NO analyzer); assay type: cell-based, human; settings: TSA 1 μmol/L with ABH (1 μmol/L)
Experimental: (§2) Nitric Oxide levels in HAEC were determined using DAF-DA as per manufacture instructions (Life Sciences). Briefly, cells were loaded with DAF-DA (5 μM) for 20 min and washed 3 times with PBS and incubated for another 30 min in phenol-free media. Fluorescence was determined using a Nikon TE-200 epifluorescence microscope. Images were captured with a Rolera EMC2 camera (Q-Imaging, BC, Canada) with Velocity software (PerkinElmer, Lexington, Mass.). NO production in the cell culture media was also determined by measuring Nitrite levels using a Siever's NO analyzer. NO radicals were measured in cell media collected after 24 hours of treatment using the Oxiselect assay (Cell Biolabs, San Diego, Calif.).

[5] = system: calcium-insensitive eNOS in HEK 293 cells; assay: NO radicals in medium of HEK 293 cells expressing calcium-insensitive eNOS (DCFH-DiOxyQ assay); assay type: cell-based, human; settings: TSA together with ABH
Experimental: as §2
Next, the functional consequences of HDAC inhibition on downstream endothelial cell signaling were evaluated. Because eNOS-derived NO plays a central role in endothelial function, eNOS activity was assessed by measuring NO production using 3 different assays. […] HEK 293 cells lack native eNOS expression, but do produce abundant Arg2. Cell medium from 293 cells transfected with a control plasmid (LacZ) was used as a control background signal that was subtracted from all the groups containing calcium-insensitive endothelial nitric oxide synthase.

HDAC = settings: cited from earlier work
[6] = MS275 2 μmol/L, CI994 1 μmol/L, MC1568 0.5 μmol/L, PC34051 100 nmol/L, MGCD0103 1 μmol/L

SMILES: NS(=O)(=O)OC[C@@H]1C[C@@H](n2ccc3c(N[C@H]4CCc5ccccc54)ncnc32)C[C@@H]1O [MLN4924]
- OxLDL-induced increase in abundance of endothelial arginase (Arg2): abolished
- quantity of NEDDylation conjugates (NEDD8): attenuated
- arginase activity in the absence of OxLDL ([1]; MLN4924 1 μM): decreased
- OxLDL-induced increase in activity of endothelial arginase [1]: abolished
- endothelium-independent responses to SNP, dose-dependent vasorelaxation ([2]; MGCD0103, MLN4924 or both, FIG. 29B): no significant differences
- endothelial function (acetylcholine dose response) in OxLDL-exposed aortas ([2]; MLN4924 1 μM 1 h before OxLDL 50 μg/mL 24 h): Substantial rescue
- Ach response in WT aorta ([2]; MLN4924 1.0 μM pretreatment): did not cause any significant changes
- vascular endothelial dysfunction induced by MGCD0103 ([2]; MLN4924 1.0 μM together with MGCD0103): did not reverse
- endothelial-dependent vascular relaxation, compound alone ([2]; MLN4924 1 μM without OxLDL): negligible effect
- endothelial-independent vascular relaxation (sodium nitroprusside) ([2]; OxLDL 50 μg/mL 24 h, MLN4924 1 μM): unaffected
- HDAC2 protein expression in the absence of OxLDL (HDAC2 [3]; MLN4924 0, 0.1, 0.3 or 1 μM): robust dose-dependent increase
- HDAC2 levels in OxLDL-exposed HAEC (HDAC2 [3]): rescued

SMILES: NC(=O)c1cccnc1 [Nicotinamide]
- Arg2 protein levels (Arg2; nicotinamide 5 mmol/L): no effect
- pIC50 (SIRT): > 4.30
- Arg2 mRNA expression (Arg2 mRNA; nicotinamide 0.1 or 0.2 mmol/L, 18 hours): No changes
- Arg2 mRNA levels (Arg2 mRNA; nicotinamide (5 mmol/L) as printed): no effect
- HAEC arginase activity, short-term ([1]; 30 minutes, nicotinamide 5 mmol/L, TSA 1 μmol/L): activating effect

SMILES: Nc1ccccc1NC(=O)c1ccc(CNC(=O)OCc2cccnc2)cc1 [MS275, Entinostat]
- endothelial Arg2 expression, class-specific HDAC inhibitors (Arg2; [6]): no substantial effects

SMILES: O=C(CCCCCN1C(=O)c2cccc3cccc(c23)C1=O)NO [Scriptaid]
- Arg2 expression, broad-spectrum HDAC inhibitors (Arg2; 1 μmol/L, 18 hours): upregulated
- eNOS expression (eNOS): negligible effect

SMILES: Cn1c(=O)c2[nH]cnc2n(C)c1=O [theophylline, 1,3-dimethylxanthine]
- HDAC2 activity and expression in alveolar macrophages (HDAC2 [4]): increases

SMILES: COc1ccc(Cn2ccc3ccc(C(=O)NO)cc32)cc1 [PCI-34051]
- endothelial Arg2 expression, class-specific HDAC inhibitors (Arg2): no substantial effects; also recorded: slight increase

SMILES: Cc1c2oc3c(C)ccc(C(=O)N[C@@H]4C(=O)N[C@H](C(C)C)C(=O)N5CCC[C@H]5C(=O)N(C)CC(=O)N(C)[C@@H](C(C)C)C(=O)O[C@@H]4C)c3nc-2c(C(=O)N[C@@H]2C(=O)N[C@H](C(C)C)C(=O)N3CCC[C@H]3C(=O)N(C)CC(=O)N(C)[C@@H](C(C)C)C(=O)O[C@@H]2C)c(N)c1=O [actinomycin D] (I: T[dV]P[Sar][NMeV] / II: T[dV]P[Sar][NMeV]; ester I:1-I:C, II:1-II:C; linker I:N-II:N via Actinocin(9to1))
- TSA (1 μmol/L) effect on Arg2 expression in pretreated cells (Arg2): failed to increase
- OxLDL-induced rise in Arg2 mRNA levels (Arg2 mRNA; with Actinomycin D): ablated

SMILES: NC(CCCCB(O)O)C(=O)O (stereo not drawn) [ABH, amino-2-borono-6-hexanoic acid]
- Emax acetylcholine-mediated vasorelaxation, TSA-treated rings pretreated with ABH ([2]; TSA 200 nmol/L plus ABH (1 mmol/L), n=6): 65.7±12.1%
- TSA-induced decrease of NO production on coincubation with ABH (NO production in HAECs): failed to occur
- TSA effect on NO production in the presence of ABH [5]: failed to attenuate

SMILES: CC(=O)Nc1ccc(C(=O)Nc2ccccc2N)cc1 [CI994, Tacedinaline]
- endothelial Arg2 expression, class-specific HDAC inhibitors (Arg2; [6]): no substantial effects

SMILES: C[C@@H]1C[C@@H]([C@H](O)CC2CC(=O)NC(=O)C2)C(=O)[C@@H](C)C1 [cycloheximide]
- TSA (1 μmol/L) effect on Arg2 expression in pretreated cells (Arg2): failed to increase
- OxLDL-induced peak in Arg2 protein levels (Arg2; with cycloheximide): ablated

SMILES: CC(C)C[C@@H](C=O)NC(=O)[C@H](CC(C)C)NC(=O)[C@H](CC(C)C)NC(=O)OCc1ccccc1 [MG132] (Cbz-Leu-Leu-Leu-aldehyde)
- OxLDL-induced increase in abundance of endothelial arginase (Arg2): abolished
- OxLDL-induced increase in activity of endothelial arginase [1]: abolished
- decrease of HDAC2 levels by HA-NEDD8 expression (HDAC2 [3]; MG132 10 μM, 8 h): abolished
- HDAC2 levels in OxLDL-exposed HAEC (HDAC2 [3]): rescued

SMILES: O=C(CCCCCCC(=O)Nc1ccccc1)NO [SAHA, Suberoylanilide Hydroxamic Acid]
- eNOS expression (eNOS): negligible effect
- HDAC classes blocked (HDAC): 10 nM; block Class I and Class II HDACs

Source: patent US20160199463A1, “HDAC2 DEFENDS VASCULAR ENDOTHELIUM FROM INJURY” (The Johns Hopkins University, priority 2014, published 2016)
